Where “and” joins values, the source holds several entries; their conditions need not be identical. Equal values may be shown once.
Assays:
HeLa cells [1] = experiment: Measurements of apoptosis, dual parameter FACS with PI and annexin V; type: cell-based; conditions: 50 μM
Protocol: Cells were plated at 200,000/ml, Au(I)-Indole analogs were added in a dose-dependent fashion for 12-24 hr. Cells were trypsinized and then washed with cold PBS. After discarding the supernatant, a 100 μL solution containing 1× annexin-binding buffer, 5 μl of alexa fluor 488 Annexin V and 1 μg/ml of PI solution was added to each sample. The cells were incubated at room temperature for 15 min. After this incubation period, an additional 400 μl of 1× annexin-binding buffer was added. Cells were analyzed using a band pass filters with wavelengths of 525/40 nm and 620/30 nm with a Beckman Coulter XL flow cytometer.

HeLa cells [2] = experiment: Cell cycle analyses (PI staining, flow cytometry); type: cell-based; conditions: for G1 (%) / G2/M (%) / S-Phase (%): 50 μM, 24 hours post-treatment
Protocol: Cells were plated at a density of 200,000/ml. Au(I)-Indole analogs were then added in a dose-dependent manner for time periods varying from 1 to 3 days. Cells were treated with 0.25% trypsin and harvested by centrifugation. The supernatant was removed and then washed with PBS. After aspiration of PBS, 500 μl of 70% ethanol was added and cells were incubated on ice for 15 minutes followed by centrifugation and the removal of ethanol. One ml of PI staining solution [(10 ml of 0.1 Triton X-100/PBS, 0.4 ml of 500 μg/ml of PI, and 2 mg/ml of DNase-free RNase)] was added to the cell suspension, placed on ice for 30 minutes, and then analyzed using a Beckman Coulter XL flow cytometer with a red filter.
We next analyzed the effects of compounds 3 and 4 on cell-cycle progression using PI staining to measure cellular DNA content. HeLa cells were treated with DMSO.

AMPK-α1 = target: T1, AMPK-α1 (Homo sapiens, UniProt Q13131); experiment: Kinase inhibition screening (Luceome); type: biochemical; conditions: 10 μM
T1 construct: purchased Luceome Biotechnologies (Tucson, Ariz.)
Source text: (§1) It is well established that dysfunctional and unregulated kinase activity plays significant roles in cancer initiation and progression. […] Inspection of the data provides several interesting observations. […] These inhibitory effects at this concentration are consistent with their measured IC50 values that are also in the μM range (Table 1). In addition, several kinases display overlapping inhibitory responses to both gold(I) compounds. Many of these are of particular interest since they are involved in cancer initiation and/or progression. For example, the Aurora kinase family members, Aurora A and Aurora B, as well as the MARK2 and MARK3 kinases function during mitosis to regulate cell division. These kinases are important therapeutic targets as their activities are often deregulated in many types of cancers. Other kinases such as RPS6KA3 and MLK3 are involved in the MAP kinase and JNK pathways which are also important in cancer progression.

AMPK-α2 = target: T2, AMPK-α2 (Homo sapiens, UniProt P54646); experiment: Kinase inhibition screening (Luceome); type: biochemical; conditions: 10 μM
T2 construct: purchased Luceome Biotechnologies (Tucson, Ariz.)
Source text: as §1

AURKB = target: T3, AURKB (Homo sapiens, UniProt Q96GD4); experiment: Kinase inhibition screening (Luceome); type: biochemical; conditions: 10 μM
T3 construct: purchased Luceome Biotechnologies (Tucson, Ariz.)
T3 sequence (Q96GD4 whole entry): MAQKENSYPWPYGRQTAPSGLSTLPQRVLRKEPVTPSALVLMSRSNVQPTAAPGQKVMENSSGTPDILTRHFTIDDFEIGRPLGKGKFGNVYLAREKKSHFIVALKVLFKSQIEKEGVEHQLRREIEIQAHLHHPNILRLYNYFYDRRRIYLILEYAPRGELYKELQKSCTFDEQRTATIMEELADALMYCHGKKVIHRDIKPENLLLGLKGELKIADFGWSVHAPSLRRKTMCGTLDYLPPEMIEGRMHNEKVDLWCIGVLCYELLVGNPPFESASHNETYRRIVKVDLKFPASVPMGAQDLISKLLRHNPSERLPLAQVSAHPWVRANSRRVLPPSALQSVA
Source text: as §1

AURKC = target: T4, AURKC (Homo sapiens, UniProt Q9UQB9); experiment: Kinase inhibition screening (Luceome); type: biochemical; conditions: 10 μM
T4 construct: purchased Luceome Biotechnologies (Tucson, Ariz.)
T4 sequence (Q9UQB9 whole entry): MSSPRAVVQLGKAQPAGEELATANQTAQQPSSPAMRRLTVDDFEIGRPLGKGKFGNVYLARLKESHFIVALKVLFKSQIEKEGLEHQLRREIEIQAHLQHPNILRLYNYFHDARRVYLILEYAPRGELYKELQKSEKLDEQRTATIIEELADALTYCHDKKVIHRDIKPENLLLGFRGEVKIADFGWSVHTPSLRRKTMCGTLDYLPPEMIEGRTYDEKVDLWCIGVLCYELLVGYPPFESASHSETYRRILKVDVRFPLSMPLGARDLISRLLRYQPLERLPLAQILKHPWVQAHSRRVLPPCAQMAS
Source text: as §1

CAM1G = target: T5, CAM1G (Homo sapiens, UniProt Q96NX5); experiment: Kinase inhibition screening (Luceome); type: biochemical; conditions: 10 μM
T5 construct: purchased Luceome Biotechnologies (Tucson, Ariz.)
Source text: as §1

CAMK1 = target: T6, CAMK1 (Homo sapiens, UniProt Q14012); experiment: Kinase inhibition screening (Luceome); type: biochemical; conditions: 10 μM
T6 construct: purchased Luceome Biotechnologies (Tucson, Ariz.)
T6 sequence (Q14012 whole entry): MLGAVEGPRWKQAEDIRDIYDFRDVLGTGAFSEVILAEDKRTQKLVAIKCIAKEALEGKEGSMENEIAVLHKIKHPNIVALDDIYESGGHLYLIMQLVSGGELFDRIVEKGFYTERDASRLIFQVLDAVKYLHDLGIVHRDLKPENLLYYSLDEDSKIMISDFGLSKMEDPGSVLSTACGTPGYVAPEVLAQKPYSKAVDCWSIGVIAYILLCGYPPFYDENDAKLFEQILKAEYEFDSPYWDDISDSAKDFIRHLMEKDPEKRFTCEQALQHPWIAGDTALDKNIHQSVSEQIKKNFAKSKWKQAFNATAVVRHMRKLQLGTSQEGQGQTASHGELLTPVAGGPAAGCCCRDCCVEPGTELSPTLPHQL
Source text: as §1

CAMKD2B = target: T7, CAMKD2B (Homo sapiens, UniProt Q13554); experiment: Kinase inhibition screening (Luceome); type: biochemical; conditions: 10 μM
T7 construct: purchased Luceome Biotechnologies (Tucson, Ariz.)
T7 sequence (Q13554 whole entry): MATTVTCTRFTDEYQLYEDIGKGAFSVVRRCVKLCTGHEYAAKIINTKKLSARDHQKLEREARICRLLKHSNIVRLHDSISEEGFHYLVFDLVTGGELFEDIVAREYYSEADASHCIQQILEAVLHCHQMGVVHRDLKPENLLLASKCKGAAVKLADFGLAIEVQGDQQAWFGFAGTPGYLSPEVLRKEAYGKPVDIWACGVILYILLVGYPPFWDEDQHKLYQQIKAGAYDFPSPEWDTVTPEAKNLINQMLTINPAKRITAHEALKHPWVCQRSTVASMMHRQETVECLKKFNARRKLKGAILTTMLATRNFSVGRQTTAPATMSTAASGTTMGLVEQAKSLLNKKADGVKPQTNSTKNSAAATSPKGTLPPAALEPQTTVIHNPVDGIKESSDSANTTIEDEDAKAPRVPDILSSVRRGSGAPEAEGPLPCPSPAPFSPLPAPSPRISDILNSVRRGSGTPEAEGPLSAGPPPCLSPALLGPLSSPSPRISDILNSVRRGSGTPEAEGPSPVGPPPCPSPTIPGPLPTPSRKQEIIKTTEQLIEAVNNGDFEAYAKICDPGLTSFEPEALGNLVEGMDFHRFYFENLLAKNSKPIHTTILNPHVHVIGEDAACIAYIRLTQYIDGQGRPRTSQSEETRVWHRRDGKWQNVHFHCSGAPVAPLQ
Source text: as §1

CAMKK1 = target: T8, CAMKK1 (Homo sapiens, UniProt Q8N5S9); experiment: Kinase inhibition screening (Luceome); type: biochemical; conditions: 10 μM
T8 construct: purchased Luceome Biotechnologies (Tucson, Ariz.)
T8 sequence (Q8N5S9 whole entry): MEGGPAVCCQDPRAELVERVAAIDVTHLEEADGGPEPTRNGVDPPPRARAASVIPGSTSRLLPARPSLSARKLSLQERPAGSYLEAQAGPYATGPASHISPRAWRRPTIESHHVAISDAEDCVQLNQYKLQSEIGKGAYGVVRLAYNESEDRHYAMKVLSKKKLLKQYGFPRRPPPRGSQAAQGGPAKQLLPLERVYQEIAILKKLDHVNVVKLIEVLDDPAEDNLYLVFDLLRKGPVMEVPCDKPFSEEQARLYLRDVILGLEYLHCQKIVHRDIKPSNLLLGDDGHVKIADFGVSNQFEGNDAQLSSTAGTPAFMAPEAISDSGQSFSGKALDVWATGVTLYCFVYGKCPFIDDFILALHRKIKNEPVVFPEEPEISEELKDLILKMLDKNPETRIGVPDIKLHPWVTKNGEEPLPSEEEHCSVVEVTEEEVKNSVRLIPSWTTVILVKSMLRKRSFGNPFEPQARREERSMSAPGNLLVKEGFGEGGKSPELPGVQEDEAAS
Source text: as §1

CAMKK2 = target: T9, CAMKK2 (Homo sapiens, UniProt Q96RR4); experiment: Kinase inhibition screening (Luceome); type: biochemical; conditions: 10 μM
T9 construct: purchased Luceome Biotechnologies (Tucson, Ariz.)
Source text: as §1

CLK2 = target: T10, CLK2 (Homo sapiens, UniProt P49760); experiment: Kinase inhibition screening (Luceome); type: biochemical; conditions: 10 μM
T10 construct: purchased Luceome Biotechnologies (Tucson, Ariz.)
Source text: as §1

DDR2 = target: T11, DDR2 (Homo sapiens, UniProt Q16832); experiment: Kinase inhibition screening (Luceome); type: biochemical; conditions: 10 μM
T11 construct: purchased Luceome Biotechnologies (Tucson, Ariz.)
Source text: as §1

FGFR2 = target: T12, FGFR2 (Homo sapiens, UniProt P21802); experiment: Kinase inhibition screening (Luceome); type: biochemical; conditions: 10 μM
T12 construct: purchased Luceome Biotechnologies (Tucson, Ariz.)
Source text: as §1

MARK3 = target: T13, MARK3 (Homo sapiens, UniProt P27448); experiment: Kinase inhibition screening (Luceome); type: biochemical; conditions: 10 μM
T13 construct: purchased Luceome Biotechnologies (Tucson, Ariz.)
Source text: as §1

MET = target: T14, MET (Homo sapiens, UniProt P08581); experiment: Kinase inhibition screening (Luceome); type: biochemical; conditions: 10 μM
T14 construct: purchased Luceome Biotechnologies (Tucson, Ariz.)
Source text: as §1

MST2 = target: T15, MST2 (Homo sapiens, UniProt Q13188); experiment: Kinase inhibition screening (Luceome); type: biochemical; conditions: 10 μM
T15 construct: purchased Luceome Biotechnologies (Tucson, Ariz.)
T15 sequence (Q13188 whole entry): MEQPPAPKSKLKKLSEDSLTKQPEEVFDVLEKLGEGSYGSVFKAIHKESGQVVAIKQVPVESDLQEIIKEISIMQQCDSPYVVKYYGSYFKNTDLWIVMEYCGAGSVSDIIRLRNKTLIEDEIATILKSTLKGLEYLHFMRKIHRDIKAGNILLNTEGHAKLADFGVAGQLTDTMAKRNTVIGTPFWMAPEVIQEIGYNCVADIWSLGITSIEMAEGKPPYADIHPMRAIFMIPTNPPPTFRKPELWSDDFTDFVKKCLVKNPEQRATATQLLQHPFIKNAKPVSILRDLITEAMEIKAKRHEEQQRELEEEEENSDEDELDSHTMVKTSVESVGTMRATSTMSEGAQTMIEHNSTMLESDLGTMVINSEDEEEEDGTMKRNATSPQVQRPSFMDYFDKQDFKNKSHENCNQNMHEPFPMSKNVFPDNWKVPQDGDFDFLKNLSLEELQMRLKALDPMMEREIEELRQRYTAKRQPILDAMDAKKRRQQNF
Source text: as §1

PAK1 = target: T16, PAK1 (Homo sapiens, UniProt Q13153); experiment: Kinase inhibition screening (Luceome); type: biochemical; conditions: 10 μM
T16 construct: purchased Luceome Biotechnologies (Tucson, Ariz.)
Source text: as §1

PDK1 = target: T17, PDK1 (Homo sapiens, UniProt O15530); experiment: Kinase inhibition screening (Luceome); type: biochemical; conditions: 10 μM
T17 construct: purchased Luceome Biotechnologies (Tucson, Ariz.)
Source text: as §1

PIM1 = target: T18, PIM1 (Homo sapiens, UniProt P11309); experiment: Kinase inhibition screening (Luceome); type: biochemical; conditions: 10 μM
T18 construct: purchased Luceome Biotechnologies (Tucson, Ariz.)
Source text: as §1

PIM2 = target: T19, PIM2 (Homo sapiens, UniProt Q9P1W9); experiment: Kinase inhibition screening (Luceome); type: biochemical; conditions: 10 μM
T19 construct: purchased Luceome Biotechnologies (Tucson, Ariz.)
Source text: as §1

PKC-δ = target: T20, PKC-δ (Homo sapiens, UniProt Q05655); experiment: Kinase inhibition screening (Luceome); type: biochemical; conditions: 10 μM
T20 construct: purchased Luceome Biotechnologies (Tucson, Ariz.)
Source text: as §1

PKC-ε = target: T21, PKC-ε (Homo sapiens, UniProt Q02156); experiment: Kinase inhibition screening (Luceome); type: biochemical; conditions: 10 μM
T21 construct: purchased Luceome Biotechnologies (Tucson, Ariz.)
T21 sequence (Q02156 whole entry): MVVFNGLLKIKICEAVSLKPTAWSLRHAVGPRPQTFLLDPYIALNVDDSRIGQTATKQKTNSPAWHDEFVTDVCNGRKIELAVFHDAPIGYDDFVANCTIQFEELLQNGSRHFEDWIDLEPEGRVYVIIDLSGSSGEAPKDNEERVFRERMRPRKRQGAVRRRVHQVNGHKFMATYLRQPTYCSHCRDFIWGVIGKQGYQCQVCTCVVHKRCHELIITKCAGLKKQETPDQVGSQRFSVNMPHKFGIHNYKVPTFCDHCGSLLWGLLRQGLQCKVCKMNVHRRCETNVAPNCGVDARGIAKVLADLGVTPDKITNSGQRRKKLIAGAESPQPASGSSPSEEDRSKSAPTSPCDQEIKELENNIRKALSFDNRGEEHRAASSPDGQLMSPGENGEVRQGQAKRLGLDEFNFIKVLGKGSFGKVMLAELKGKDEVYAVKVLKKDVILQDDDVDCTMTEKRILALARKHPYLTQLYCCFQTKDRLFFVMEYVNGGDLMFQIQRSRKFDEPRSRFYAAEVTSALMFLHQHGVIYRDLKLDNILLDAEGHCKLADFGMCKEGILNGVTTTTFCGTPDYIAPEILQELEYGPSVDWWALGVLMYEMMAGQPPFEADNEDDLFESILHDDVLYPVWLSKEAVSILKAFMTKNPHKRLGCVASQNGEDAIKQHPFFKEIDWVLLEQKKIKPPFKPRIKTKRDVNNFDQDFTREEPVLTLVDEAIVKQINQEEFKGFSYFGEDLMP
Source text: as §1

PKG1 = target: T22, PKG1 (Homo sapiens, UniProt Q13976); experiment: Kinase inhibition screening (Luceome); type: biochemical; conditions: 10 μM
T22 construct: purchased Luceome Biotechnologies (Tucson, Ariz.)
Source text: as §1

RPS6KA3 = target: T23, RPS6KA3 (Homo sapiens, UniProt P51812); experiment: Kinase inhibition screening (Luceome); type: biochemical; conditions: 10 μM
T23 construct: purchased Luceome Biotechnologies (Tucson, Ariz.)
Source text: as §1

RPS6KA4 = target: T24, RPS6KA4 (Homo sapiens, UniProt O75676); experiment: Kinase inhibition screening (Luceome); type: biochemical; conditions: 10 μM
T24 construct: purchased Luceome Biotechnologies (Tucson, Ariz.)
T24 sequence (O75676 whole entry): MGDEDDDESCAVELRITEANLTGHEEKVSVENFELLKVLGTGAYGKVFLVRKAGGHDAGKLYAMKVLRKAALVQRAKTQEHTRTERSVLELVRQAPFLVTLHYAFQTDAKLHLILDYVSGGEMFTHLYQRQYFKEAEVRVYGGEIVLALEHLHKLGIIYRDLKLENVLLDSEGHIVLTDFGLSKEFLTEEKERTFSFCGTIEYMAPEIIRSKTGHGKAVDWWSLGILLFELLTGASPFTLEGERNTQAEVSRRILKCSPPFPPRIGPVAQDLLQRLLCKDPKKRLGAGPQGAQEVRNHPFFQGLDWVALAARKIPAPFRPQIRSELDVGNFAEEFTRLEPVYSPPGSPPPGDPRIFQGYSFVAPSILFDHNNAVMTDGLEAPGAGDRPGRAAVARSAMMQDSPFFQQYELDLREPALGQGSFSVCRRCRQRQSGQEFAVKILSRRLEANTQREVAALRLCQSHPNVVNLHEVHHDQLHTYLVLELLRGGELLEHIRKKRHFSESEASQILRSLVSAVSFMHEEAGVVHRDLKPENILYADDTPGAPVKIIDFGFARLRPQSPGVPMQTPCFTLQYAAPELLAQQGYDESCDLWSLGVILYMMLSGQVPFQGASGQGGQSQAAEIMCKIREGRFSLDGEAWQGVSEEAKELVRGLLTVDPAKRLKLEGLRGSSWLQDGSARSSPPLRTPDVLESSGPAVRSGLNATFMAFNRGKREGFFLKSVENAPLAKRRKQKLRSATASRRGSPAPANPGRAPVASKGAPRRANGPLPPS
Source text: as §1

RPS6KA5 = target: T25, RPS6KA5 (Homo sapiens, UniProt O75582); experiment: Kinase inhibition screening (Luceome); type: biochemical; conditions: 10 μM
T25 construct: purchased Luceome Biotechnologies (Tucson, Ariz.)
T25 sequence (O75582 whole entry): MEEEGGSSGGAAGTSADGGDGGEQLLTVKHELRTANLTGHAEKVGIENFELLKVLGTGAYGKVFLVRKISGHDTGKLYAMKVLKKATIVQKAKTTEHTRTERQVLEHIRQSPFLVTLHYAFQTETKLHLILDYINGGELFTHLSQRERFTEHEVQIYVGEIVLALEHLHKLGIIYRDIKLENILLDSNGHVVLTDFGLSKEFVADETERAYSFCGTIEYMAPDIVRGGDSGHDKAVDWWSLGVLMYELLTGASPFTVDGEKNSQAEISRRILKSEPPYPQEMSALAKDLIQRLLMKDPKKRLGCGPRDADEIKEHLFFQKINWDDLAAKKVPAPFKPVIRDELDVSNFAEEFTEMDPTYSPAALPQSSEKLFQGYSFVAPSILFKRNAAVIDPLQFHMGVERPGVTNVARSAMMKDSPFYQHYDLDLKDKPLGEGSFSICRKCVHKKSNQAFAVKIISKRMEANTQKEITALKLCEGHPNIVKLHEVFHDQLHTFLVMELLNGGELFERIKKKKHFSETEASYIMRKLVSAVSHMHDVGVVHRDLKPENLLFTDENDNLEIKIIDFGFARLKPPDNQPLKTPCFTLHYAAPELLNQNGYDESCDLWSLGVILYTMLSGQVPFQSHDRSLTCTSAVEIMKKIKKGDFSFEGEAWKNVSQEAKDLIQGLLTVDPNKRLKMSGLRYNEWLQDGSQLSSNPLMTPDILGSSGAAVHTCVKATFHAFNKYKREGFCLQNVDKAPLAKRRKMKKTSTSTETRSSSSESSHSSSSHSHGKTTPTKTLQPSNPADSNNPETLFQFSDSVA
Source text: as §1

SNF1LK2 = target: T26, SNF1LK2 (Homo sapiens, UniProt Q9H0K1); experiment: Kinase inhibition screening (Luceome); type: biochemical; conditions: 10 μM
T26 construct: purchased Luceome Biotechnologies (Tucson, Ariz.)
Source text: as §1

YSK1 = target: T27, YSK1 (Homo sapiens, UniProt O00506); experiment: Kinase inhibition screening (Luceome); type: biochemical; conditions: 10 μM
T27 construct: purchased Luceome Biotechnologies (Tucson, Ariz.)
Source text: as §1

| SMILES | Early Apoptotic (%) (HeLa cells [1]; HeLa, 24 hours) | Late Apoptotic (%) (HeLa cells [1]; HeLa, 24 hours) | Live (%) (HeLa cells [1]; HeLa, 24 hours) | Necrotic (%) (HeLa cells [1]; HeLa, 24 hours) | G1 (%) (HeLa cells [2]) | G2/M (%) (HeLa cells [2]) | S-Phase (%) (HeLa cells [2]) | % Inhibition AMPK-α1 (AMPK-α1) | % Inhibition AMPK-α2 (AMPK-α2) | % Inhibition AURKB (AURKB) | % Inhibition AURKC (AURKC) | % Inhibition CAM1G (CAM1G) | % Inhibition CAMK1 (CAMK1) | % Inhibition CAMKD2B (CAMKD2B) | % Inhibition CAMKK1 (CAMKK1) | % Inhibition CAMKK2 (CAMKK2) | % Inhibition CLK2 (CLK2) | % Inhibition DDR2 (DDR2) | % Inhibition FGFR2 (FGFR2) | % Inhibition MARK3 (MARK3) | also measured |
| --- | --- | --- | --- | --- | --- | --- | --- | --- | --- | --- | --- | --- | --- | --- | --- | --- | --- | --- | --- | --- | --- |
| CC(C)(C)OC(=O)n1ccc2c[c]([Au-][P+](C3CCCCC3)(C3CCCCC3)C3CCCCC3)ccc21 [Compound 4, 5-{Tricyclohexylphosphine aurate(I)}-tert-butyl1H-indole-1-carboxylate] | 5.3% and 5.3 +/− 1.1% | 8.1% and 8.1 +/− 1.8% | 68.4 +/− 0.8% | 18.8 +/− 2.5% | 60.3+/−3.2% and 60.3 +/− 0.8% | 11.4 +/− 4.9% | 28.3 +/− 1.3% | 0% | 0% | 24.5% | 35.0% | 0% | 0% | 0% | 0% | 7.9% | 0% | 0% | 0% | 34% | fold higher amount of late-stage apoptotic cells compared to compound 3 (HeLa cells [1]; HeLa): 2 fold; fold higher amount of necrosis compared to compound 3 (HeLa cells [1]; HeLa): ~9 fold; % Inhibition MET (MET): 23.3%; % Inhibition MST2 (MST2): 0%; % Inhibition PAK1 (PAK1): 0%; % Inhibition PDK1 (PDK1): 24.3%; % Inhibition PIM1 (PIM1): 10.6%; % Inhibition PIM2 (PIM2): 8.7%; % Inhibition PKC-δ (PKC-δ): 3.8%; % Inhibition PKC-ε (PKC-ε): 5.9%; % Inhibition PKG1 (PKG1): 3.2%; % Inhibition RPS6KA3 (RPS6KA3): 34.9%; % Inhibition RPS6KA4 (RPS6KA4): 21.8%; % Inhibition RPS6KA5 (RPS6KA5): 5.0%; % Inhibition SNF1LK2 (SNF1LK2): 32.9%; % Inhibition YSK1 (YSK1): 20.9% |
| CC(C)(C)OC(=O)n1ccc2c[c]([Au-][P+](c3ccccc3)(c3ccccc3)c3ccccc3)ccc21 [Compound 3, 5-{Triphenylphosphine aurate(I)}-tert-butyl1H-indole-1-carboxylate] | 8.8% and 8.8 +/− 0.7% | 4.3% and 4.3 +/− 1.8% | 84.4 +/− 3.0% | 2.4 +/− 0.8% | 45.4 +/− 2.1% | 13.0 +/− 2.1% | 41.6 +/− 0.1% | 0% | 0% | 11.1% | 23.9% | 0% | 0% | 0% | 0% | 0% | 0% | 0% | 5.1% | 6.5% | fold increase in early stage apoptosis compared to DMSO (HeLa cells [1]; 24 hours): 6 fold; fold increase in late stage apoptosis compared to DMSO (HeLa cells [1]; 24 hours): ~10 fold; alterations in cell-cycle progression (HeLa cells [2]; over a 24 hour period): does not cause any significant alterations in cell-cycle progression; % Inhibition MET (MET): 15.1%; % Inhibition MST2 (MST2): 0%; % Inhibition PAK1 (PAK1): 0%; % Inhibition PDK1 (PDK1): 17.4%; % Inhibition PIM1 (PIM1): 0%; % Inhibition PIM2 (PIM2): 0%; % Inhibition PKC-δ (PKC-δ): 0%; % Inhibition PKC-ε (PKC-ε): 0%; % Inhibition PKG1 (PKG1): 5.4%; % Inhibition RPS6KA3 (RPS6KA3): 16.7%; % Inhibition RPS6KA4 (RPS6KA4): 1.0%; % Inhibition RPS6KA5 (RPS6KA5): 0%; % Inhibition SNF1LK2 (SNF1LK2): 0%; % Inhibition YSK1 (YSK1): 0% |
